Key:
[1] = tested on: AMF infections of western wheatgrass (Pascopyron smithii) roots; experiment: Field plot study: AM fungal infection of western wheatgrass roots; type: in vivo; conditions: field plots
From the text: (§1) Twelve plots of size 50 cm by 50 cm were established on a homogenous site 2.54 meters (running northeast and southwest) by 4.06 meters (running southeast and northwest). Plant distribution was mostly homogeneous across the entire site, with western wheatgrass dominant. The plots were in four rows with three plots in each row. Within a row plots were 25 cm apart. Rows were 50 cm apart. An experimental unit was one plot. Treatments were replicated three times. Treatments included: controls (no treatment), potassium chloride treatment, potassium phosphate treatment, and potassium phosphite treatment. (See, FIG. 2).
(§2) Treatments: All plots received the same amount of solution. The control plots were treated with distilled water only (6.375 L). The KCl plots treated with distilled water containing the same amount of K as was needed to convert the phosphorous acid (H3PO3) to dipotassium phosphite (K2HPO3). The phosphate plots were treated with sufficient dipotassium phosphate (K2HPO4) to deliver 3 g of P per plot dissolved in the same amount of distilled water as the control plots received and the KCl plots received. The phosphite plots were treated with sufficient dipotassium phosphite (K2HPO3) to deliver 3 g of P per plot dissolved in the same amount of distilled water as the control plots received, the KCl plots received and the phosphate plots received.
The field experiment reported in this example was conducted during June through October. Plots were established during early June and treated on the 15th and 16th day (as in Example 3 above). […] Sample size and depth was as detailed above in Example 3.
Analyses of infections were performed by examining roots of wheatgrass (Pascopyron smithii). This plant was the dominant plant in all of the plots and is known to be commonly infected with AM fungi. (See, Loree M. A. J. and Williams S. E., New Phytologist, 106:735-744, 1987; and Wang B. and Qui Y.-L. 2006, Ibid.). During sampling of soils using the methodology outlined in Example 3, above, root of target plants were removed and separated by plant species, each sample being labeled and preserved in FAA solution until being further processed.
Staining of the roots was achieved according to published procedures (see, Phillips J. M. and Hayman D. S., Trans. Brit. Mycological Soc., 55:158-160, 1970) except that cotton blue lactophenol was substituted with lactic acid glycerol with trypan blue since lactophenol is toxic. The procedure used for staining was as follows: • A) Remove roots from FAA Solutions. Cut into 1 cm lengths. Place in test tube, push roots to the bottom of the test tube. • B) Cover roots with 10% KOH (10 grams of reagent grade KOH in enough distilled water to 100 ml). Let stand overnight, about 10 hours. • C) Simmer at 90° C. for one hour in a water bath (container with water and test tubes with roots over a heat source). • D) Rinse in tap water. • E) Rinse five minutes in 0.1 N HCl (3.65 […] of HCl in 1000 ml total volume with distilled water). • F) Rinse in tap water. • G) Simmer at 90° C. one hour (in water bath) in Trypan blue Lactic Acid Glycerol (distilled water, 100 ml; lactic acid (reagent grade 85 to 88%) 100 ml; glycerin (reagent grade 85% also listed as glycerol), 200 ml; trypan blue, 0.1 grams (60% dye content). • H) Rinse in tap water. • I) Place in clear lactic acid glycerol (same formulation as above except without the Trypan blue) if destaining is necessary. Samples can be simmered at 90° C. (one hour in water bath) or left at room temperature for at least 72 hours or longer. • J) Mount on standard glass slide (2.5 cm by 7.6 cm) in lactic acid glycerol. Cover slip (2.3 cm by 4.8 cm) used.
An estimate of the degree of infection of western wheatgrass was made by making microscopic scans of each slide such that 40 root segments were evaluated. The evaluation was performed using the 20× objective, e.g., 200× total magnification—eyepieces were 10× multiplied by the objective magnification. […]

AM fungi = experiment: Field plot study: AMF spore counts in soil around western wheatgrass roots; type: in vivo; conditions: field plots
From the text: as §1
In this study phosphorus, either as phosphate or phosphite, was added at a rate of 120 kg of P per hectare (ha). Scaled down this equates to 3 grams of phosphorous per plot. One ha is 10,000 m^2. Each plot is 50 cm by 50 cm, or 0.25 m^2. The subsequent calculation then is 120 Kg/10,000 m^2=X/0.25 m^2; X=3.00 grams of P per plot. (See Table 2).
as §2
The field experiment reported in this example was conducted during June through October. Plots were established during early June and treated on the 15th and 16th day (as in Example 3 above). The first soil and root sampling was performed 14 days later (t=14). The second set of samples were taken 47 days later (t=61), and the third set 60 days later (t=121 days). Sample size and depth was as detailed above in Example 3.
AMF spores were evaluated in soil samples from which plant roots including plant roots of western wheatgrass had existed and had been removed. Evaluations were performed on the T=0 and the T=47 samples. These evaluations generally entailed mixing the sample with water, centrifugation, and decanting water. This step was performed to remove light organic matter and other light materials, e.g., leaf fragments. This was followed by mixing the soil with a solution of sodium hexametaphosphate (2%) in 2 M sucrose. Centrifugation results in the spores floating on the sucrose solution or suspended in it. The sucrose solution plus spores is decanted into a separatory funnel. The suspension was allowed to exit the funnel one drop at a time. The spores adhere to the inside of the funnel and once all liquid has exited the funnel the spores are washed into a petri-dish and counted under a dissecting microscope.
The specific protocol for spore extraction was as follows: • A) Weigh 5 g of air dried soil into a 20 ml centrifuge tube. For a complete sample this is replicated four times. • B) Fill each tube with water to ˜1.5 cm of the top. Stir to suspend organic matter and other light debris. Let all tubes stand for 10 minutes. • C) Centrifuge at 2000 rpm (475.2×g) for 10 minutes. Be sure tubes are placed across from each other in the centrifuge and are within 0.1 g of the same weight. • D) Pour off and discard supernatant while stirring surface and rotating tube. • E) If much organic matter and other light material remains, repeat steps B through D. • F) Add sucrose/sodium hexametaphosphate solution (2 molar sucrose containing 2% hexametaphosphate: 684.6 g of sucrose (store grade is adequate) and 20 g of sodium hexametaphosphate in one liter of solution using distilled water) to centrifuge tubes to ˜1.5 cm of top. […]

Question: With `[Cl-].[K+]` [KCl, potassium chloride, reference compound] as the compound, how does the “infection level compared to the control and phosphorus treated plants” value ([1]; third sampling, t = 97 days) read?
Answer: small depression in infection levels

Question: What about the “AM Infection t = 0 days” value ([1]; western wheatgrass roots, mean n = 3, first sampling) of the same compound?
Answer: 31Aa Per forty 1.1 mm root segments

Question: And the “AM Infection t = 47 days” value ([1]; western wheatgrass roots, mean n = 3, second sampling)?
Answer: 34Aab Per forty 1.1 mm root segments

Question: What about the “AM Infection t = 97 days” value ([1]; western wheatgrass roots, mean n = 3, third sampling) of the same compound?
Answer: 36BCabc Per forty 1.1 mm root segments

Question: And the “Total Spores t = 47 days” value (AM fungi; mean n = 3, P added at 120 kg/ha (KCl: same K), second sampling)?
Answer: 14806Ab Per 100 g soil

Question: And the “Total Spores t = 0 days” value (AM fungi; mean n = 3, P added at 120 kg/ha (KCl: same K), t = 0 = first sampling, 14 days after treatment)?
Answer: 6398Aa Per 100 g soil

Question: What about the “spore numbers compared with the control” value (AM fungi; second sampling, t = 47) of the same compound?
Answer: significant increase in spore numbers from the control
